For assay [1], the system named is AMPK. The experiment in a line: AMPK activity assay at cell level (western blot of p-AMPKα and p-ACC in MEFs). It counts as cell-based, mouse. As to conditions: MEF cells, compound 10 nM, 2 h; multiple of the ratio relative to positive control AICAR (3 mM); band brightness by Image J. On the procedure: The ability of compounds to activate AMPK in mouse embryonic fibroblasts (MEFs) was determined, which could be specifically carried out by detecting the phosphorylation level (p-AMPKα) of threonine at the 172nd position of AMPK and the phosphorylation level (p-ACC) of serine at the 79th position of the susbtrate ACC1/ACC2 of AMPK (FIG. 1 and Table I) by western blot.
The specific method was as follows: • (1) MEFs with loxP insertion sequences or of wild-type were plated in a 6-well plate and cultured in DMEM containing 10% serum. If a gene needed to be knocked out at this time, when the density of the corresponding MEFs with loxP insertion sequences reached about 30%, an adenovirus capable of expressing cre should be added to the culture well followed by further culture for more than 24 h; • (2) When the cell density was close to 90%, the cells were provided with fresh DMEM, at the same time, a compound (final concentration 10 nM) was added to the cells, followed by culture for 2 h, with an equal volume of DMSO as the negative control, and the cells treated with the addition of AICAR (3 mM) as the positive control; • (3) After sucking up the culture solution, the cells were lysed with 200 μL of a cell lysate (its formulation was given below), then the cells were scraped from the culture dish, ultrasonicated, and subjected to low temperature centrifugation at 20000 g for 10 min; • (4) The supernatant and an equal volume of 2*SDS solution (its formulation was given below) were mixed, and subjected to SDS-PAGE in a concentration of 8%, then the protein was transferred to PVDF membrane; each PVDF membrane was blocked with 25 mL of skim milk for 1 h, and then rinsed with TBST buffer (its formulation was given below) 3 times for 10 min each time; • (5) AMPKα subunit primary antibody (Cell Signaling Technology, #2532), primary antibody of phosphothreonine at the 172nd position of AMPK (Cell Signaling Technology, #2535), ACC primary antibody (Cell Signaling Technology, #3662), or primary antibody of phosphoserine at the 79th position of ACC (Cell Signaling Technology, #3661) was diluted in a ratio of 1:1000 with a primary antibody dilution (its formulation was given below), reacted with the PVDF membrane at room temperature for 12 h, and then rinsed 3 times with TBST buffer; • (6) A 1:1000 dilution of HRP-conjugated goat anti-rabbit secondary antibody (Jackson ImmunoResearch, 111-035-003) was added, reacted at room temperature for 1 h, and then rinsed 3 times with TBST buffer; • (7) The PVDF membrane was dried, reacted in an ECL mixture (WesternBright ECL HRP substrate, Advansta) and subjected to exposure with medical X-ray, developed, finally rinsed, dried, and then scanned to obtain data related to AMPK activation.
The formulations of reagents used were: • Cell lysate: 20 mM Tris-base, pH 7.5, 150 mM NaCl, 1 mM EDTA, 1 mM EGTA, 2.5 mM Sodium pyrophosphate, 1 mM β-glycerolphosphate, 1% Triton X-100 (v/v); • 2*SDS solution: 20% Glycerol (v/v), 4% SDS (m/v), 10% β-mecaptoethanol (v/v), 0.01% Bromophenol blue (m/v); • TBST buffer: 4.84% Tris-base (m/v), 8% NaCl (m/v), 0.1% Tween-20 (v/v); • Primary antibody dilution: TBST buffer containing 5% BSA (v/v).
A general note: Immunoblotting shows a protein as a band on a membrane.

Assay [2] has as its system AMPK. The experiment in a line: AMPK activation in liver of treated high-fat-fed mice by western blot. It counts as in vivo, mouse. As to conditions: 90 days after s.c. administration.
Excerpt: […]

A further assay has as its system C57BL/6J male mice. The experiment in a line: Sugar tolerance test of mice (ip-GTT). It counts as in vivo, mouse. As to conditions: intragastric 0.2, 2 mg/kg, glucose 1 g/kg i.p. after 2 h.

“Also recorded” adds a separate entry of the source.

For `Cc1n(CCCCCCCCCCCC(F)(F)C(F)(F)C(F)(F)C(F)(F)C(F)(F)F)cc[n+]1Cc1c(Cl)cccc1Cl.[Cl-]` [IB-33], in the assay with AMPK [1], the “Degree of AMPK activation, p-ACC/ACC” value was 0.94 and the “Degree of AMPK activation, p-AMPKα/AMPK” value was found to be 0.54. For the same molecule, the “AMPK activation in the mice (p-AMPK Thr172, p-ACC Ser79 by western blot)” value with AMPK [2] was “effectively activate AMPK”. Moreover, the “blood sugar in sugar tolerance test (ip-GTT)” value in the assay on C57BL/6J male mice is given as “significantly lower blood sugar; also recorded: effective in lowering blood sugar”.

These data come from US12673921B2, “Substituted fluorine-containing imidazole salt compound, preparation method therefor, pharmaceutical composition thereof and use thereof” (XIAMEN VIVOHEALTHS TECHNOLOGY CO., LTD., priority 2019, dated 2026).
